In one assay the test system is activated neutrophils. As to the kind of experiment: Inhibition of superoxide production by PMA-activated neutrophils (WST-1 reduction), anti-inflammatory activity. It counts as cell-based. The settings on record: Rattus norvegicus, Neutrophil. As to the method:
The relative anti-inflammatory properties of the test samples were determined by establishing their abilities to inhibit the activation of neutrophils as measured by the production of superoxide. The efficacy of the test samples was referenced against Aspirin, as well as an un-supplemented control group.
Samples 1, 2 and 3 (actually numbered samples 3, 4 and 5 in the above table) were produced from the same batch of mussels. Each of the above test samples was extracted with ethanol at a ratio of 1:10 (w:v) and the residues were then extracted with distilled water at the same ratio, so that the activity of both the lipid rich or hydrophobic fraction and the hydrophilic or aqueous fraction of each of the test samples could be tested. The experimental procedure for determining the effects of the test samples on inflammation was based on the methods described in Tan, A S and Berridge, MV (2000). Superoxide produced by activated neutrophils efficiently reduces the tetrazolium salt, WST-1 to produce a soluble formazan: a simple colorimetric assay for measuring respiratory burst activation and for screening of anti-inflammatory agents. J Immunol. Meth. 238: 59-68. Neutrophils were harvested from rat whole blood and activated with phorbol 12-myristate 13-acetate (PMA). The activated neutrophils were then incubated and cultured in the presence of each of the test samples and the controls. The reduction of the WST-1 dye was measured to determine the products of superoxide. The control group was set at 100% activity (0% inhibition) and the inhibition of all samples were compared to this reference.
The ethanol and water extracts (lipid rich and hydrophilic fractions) from each of the test samples were tested at 400 μg/ml for their anti-inflammatory activity based on the inhibition of superoxide by activated neutrophils. The yields of each extraction were used along with the activity of each to obtain an estimate for the total activity within each of the test samples for the two fractions.
On the technique in general: Tetrazolium assays rely on reduction of a dye to a coloured formazan, in cell work by metabolically active cells.

The nature of assay [1]: DPPH scavenging method (antioxidant activity). As to conditions: reference value used for FIG. 8. As to the method:
The antioxidant activity of each of the samples was tested using the DPPH scavenging method (i.e. by using the stable free radical 2,2-Diphenyl-1-(2,4,6-trinitrophenyl) hydrazyl as a substrate). Whilst the DPPH method is not a direct anti-inflammatory assay, antioxidant activity has been an indication of anti-inflammatory activity in many study cases. The DPPH solution was prepared […] and kept in the freezer in the dark before use. The positive control was ascorbic acid prepared as 0.1 mg/ml in a buffer containing citric acid and NaHPO4 (pH 5). Equal amounts of sample solution and DPPH solution were added together, and the assay tube or plate was incubated for 30 minutes in the dark, followed by absorbance measurement at 517 nm on a spectrophotometer. In the blank control experiment of each sample, DPPH was replaced with ethanol. In the DPPH blank control experiment, the sample was replaced with the media (water or solvent) the sample was prepared in.
The scavenging activity (DPPH inhibition %) is calculated by percentage of the absorbance from the sample versus the DPPH only:
All samples were tested at a concentration of 10 mg/ml.
For orientation: DPPH is a stable violet radical that fades when it is reduced.

Consider two compounds from US20190350236A1, “METHOD OF PROCESSING SHELLFISH AND RESULTING COMPOSITIONS” (SANFORD LIMITED, priority 2016, published 2019).

On to `CC(=O)Oc1ccccc1C(=O)O` [Aspirin], for which the 50% inhibitory concentration (IC50) with activated neutrophils (reference value used for FIG. 7, read-out: IC50 of aspirin equivalent) was 400 µg/mL. Besides, in the assay with activated neutrophils (reference, 100 μg/ml), testing at 100 µg/mL gave an inhibition of 16.5%. In the assay on activated neutrophils (reference, 200 μg/ml), the inhibition at 200 µg/mL amounted to 48.1%. Moreover, in the assay with activated neutrophils (reference, 400 μg/ml), the inhibition at 400 µg/mL came out at 50.2%.
Take Vitamin E: the “IC50 of Vitamin E equivalent” value in assay [1] was 9.26 µg/mL.

What is called IC50 is the point on the concentration scale where inhibition reaches its midpoint. Usually inhibition stands for the drop in the measured response relative to a control, in per cent.
